Values joined by “and” are separate entries in the source; they are usually repeats but may differ in a detail not shown here. Equal values may be shown once. Toxic doses and inconclusive results are not listed.
Tested on: BDF1 mice, B16 melanoma ip, median survival T/C
Experiment: NCI In Vivo Anticancer Drug Screen. Data for tumor model B16 Melanoma (intraperitoneal) in B6D2F1 (BDF1) mice
Conditions: endpoint: median survival time, higher = longer survival
How it was run: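 In this screen, activity was judged from survival or tumor size in treated versus vehicle-treated tumor-bearing mice, reported as T/C.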

[1] = dose: 100.0 mg/kg/injection, schedule: Q04DX003 (ip), vehicle: Klucel (hydroxypropylcellulose) (HPC)
[2] = dose: 6.25 mg/kg/injection, schedule: Q01DX009 (ip), vehicle: saline
[3] = dose: 12.5 mg/kg/injection, schedule: Q01DX009 (ip), vehicle: saline
[4] = dose: 1.56 mg/kg/injection, schedule: Q01DX009 (ip), vehicle: saline
[5] = dose: 3.12 mg/kg/injection, schedule: Q01DX009 (ip), vehicle: saline
[6] = dose: 6.25 mg/kg/injection, schedule: Q01DX009 (ip), vehicle: saline with Tween-80
[7] = dose: 12.5 mg/kg/injection, schedule: Q01DX009 (ip), vehicle: saline with Tween-80
[8] = dose: 25.0 mg/kg/injection, schedule: Q01DX009 (ip), vehicle: saline with Tween-80
[9] = dose: 25.0 mg/kg/injection, schedule: Q04DX003 (ip), vehicle: saline with Tween-80
[10] = dose: 50.0 mg/kg/injection, schedule: Q04DX003 (ip), vehicle: saline with Tween-80
[11] = dose: 50.0 mg/kg/injection, schedule: Q01DX009 (ip), vehicle: Klucel (hydroxypropylcellulose) (HPC)
[12] = dose: 100.0 mg/kg/injection, schedule: Q01DX009 (ip), vehicle: Klucel (hydroxypropylcellulose) (HPC)
[13] = dose: 200.0 mg/kg/injection, schedule: Q01DX009 (ip), vehicle: Klucel (hydroxypropylcellulose) (HPC)
[14] = dose: 25.0 mg/kg/injection, schedule: Q01DX009 (ip), vehicle: Klucel (hydroxypropylcellulose) (HPC)

## CCC(=O)c1ccc(NC(C)=O)cc1
[1]
  T/C: 102 % of control
dose: 200.0 mg/kg/injection, schedule: Q04DX003 (ip), vehicle: Klucel (hydroxypropylcellulose) (HPC)
  T/C: 96 % of control
dose: 400.0 mg/kg/injection, schedule: Q04DX003 (ip), vehicle: Klucel (hydroxypropylcellulose) (HPC)
  T/C: 98 % of control

## CCOC(OCC)C(=O)NNC(C)C
[2]
  T/C: 105 % of control
[3]
  T/C: 111 % of control
dose: 50.0 mg/kg/injection, schedule: Q01DX009 (ip), vehicle: saline
  T/C: 100 % of control

## CC(C)NC1C2CCC(CC2)C1(O)c1ccc(Cl)c(Cl)c1 (stereo not given)
dose: 0.78 mg/kg/injection, schedule: Q01DX009 (ip), vehicle: saline
  T/C: 108 % of control
[4]
  T/C: 107 % of control
[5]
  T/C: 107 % of control
[2]
  T/C: 104 % of control
[3]
  T/C: 102 % of control

## O=[N+]([O-])/C(=C/c1ccccc1)c1ccccc1
[6]
  T/C: 104 % of control
[7]
  T/C: 95 % of control
[8]
  T/C: 112 % of control

## COC1CCC2=C(C1)C(=O)CC1c3ccccc3CN21 (stereo not given)
[7]
  T/C: 86 % of control
dose: 12.5 mg/kg/injection, schedule: Q04DX003 (ip), vehicle: saline with Tween-80
  T/C: 92 % of control
[8]
  T/C: 93 % of control
[9]
  T/C: 105 % of control
dose: 50.0 mg/kg/injection, schedule: Q01DX009 (ip), vehicle: saline with Tween-80
  T/C: 93 % of control
[10]
  T/C: 97 % of control

## CC1OC(OCC2OC(Oc3c(-c4ccc(O)c(OS(=O)(=O)O)c4)oc4cc(O)cc(O)c4c3=O)C(O)C(O)C2O)C(O)C(O)C1O (stereo not given)
dose: 4.0 mg/kg/injection, schedule: Q01DX009 (ip), vehicle: saline
  T/C: 101 % of control
dose: 8.0 mg/kg/injection, schedule: Q01DX009 (ip), vehicle: saline
  T/C: 105 % of control
dose: 16.0 mg/kg/injection, schedule: Q01DX009 (ip), vehicle: saline
  T/C: 101 % of control
dose: 32.0 mg/kg/injection, schedule: Q01DX009 (ip), vehicle: saline
  T/C: 100 % of control
dose: 64.0 mg/kg/injection, schedule: Q01DX009 (ip), vehicle: saline
  T/C: 103 % of control

## C[n+]1c2ccccc2c(Nc2ccc(NS(=O)(=O)CCCCN=C(N)N)cc2)c2ccc(N)cc21
dose: 0.75 mg/kg/injection, schedule: Q01DX009 (ip), vehicle: water
  T/C: 114 % of control
dose: 3.0 mg/kg/injection, schedule: Q01DX009 (ip), vehicle: Klucel (hydroxypropylcellulose) (HPC)
  T/C: 170 % of control
dose: 3.0 mg/kg/injection, schedule: Q01DX009 (ip), vehicle: water
  T/C: 171 % of control
dose: 6.0 mg/kg/injection, schedule: Q01DX009 (ip), vehicle: Klucel (hydroxypropylcellulose) (HPC)
  T/C: 159 % of control
dose: 6.0 mg/kg/injection, schedule: Q01DX009 (ip), vehicle: water
  T/C: 168 % of control and 176 % of control
dose: 12.0 mg/kg/injection, schedule: Q01DX009 (ip), vehicle: water
  T/C: 184 % of control and 188 % of control
dose: 12.5 mg/kg/injection, schedule: Q04DX003 (ip), vehicle: water
  T/C: 151 % of control
dose: 25.0 mg/kg/injection, schedule: Q04DX003 (ip), vehicle: water
  T/C: 171 % of control

## CCCCN(CCCC)CCC(=O)c1ccc(OC)c2ccccc12
[7]
  T/C: 99 % of control
[8]
  T/C: 88 % of control

## Cc1cc(C)c(-c2c(C)cc(C)c(N)c2C)c(C)c1N
dose: 75.0 mg/kg/injection, schedule: Q04DX003 (ip), vehicle: Klucel (hydroxypropylcellulose) (HPC)
  T/C: 91 % of control

## CC(=O)Oc1ccc(C)cc1
[11]
  T/C: 103 % of control
[12]
  T/C: 112 % of control
[13]
  T/C: 103 % of control

## C[n+]1c(-c2cccc(OCCOCCOc3cccc(-c4c5cc(N)ccc5c5ccc(N)cc5[n+]4C)c3)c2)c2cc(N)ccc2c2ccc(N)cc21
dose: 0.5 mg/kg/injection, schedule: Q01DX009 (ip), vehicle: water
  T/C: 110 % of control

## O=CC(=O)c1ccc(O)cc1
[4]
  T/C: 105 % of control
[5]
  T/C: 97 % of control
[2]
  T/C: 106 % of control

## O=C/C(Br)=C\c1ccccc1
dose: 25.0 mg/kg/injection, schedule: Q04DX003 (ip), vehicle: Klucel (hydroxypropylcellulose) (HPC)
  T/C: 96 % of control
dose: 50.0 mg/kg/injection, schedule: Q04DX003 (ip), vehicle: Klucel (hydroxypropylcellulose) (HPC)
  T/C: 103 % of control
[1]
  T/C: 96 % of control

## CN(C)S(=O)(=O)Nc1cc(Cl)c(NS(=O)(=O)N(C)C)cc1Cl
[12]
  T/C: 92 % of control
[13]
  T/C: 100 % of control
dose: 400.0 mg/kg/injection, schedule: Q01DX009 (ip), vehicle: Klucel (hydroxypropylcellulose) (HPC)
  T/C: 89 % of control

## O=c1cnn(C2OC(CO)C(O)C2O)c(=S)[nH]1 (stereo not given)
dose: 100.0 mg/kg/injection, schedule: Q04DX003 (ip), vehicle: saline with Tween-80
  T/C: 93 % of control
dose: 200.0 mg/kg/injection, schedule: Q04DX003 (ip), vehicle: saline with Tween-80
  T/C: 95 % of control
dose: 400.0 mg/kg/injection, schedule: Q04DX003 (ip), vehicle: saline with Tween-80
  T/C: 88 % of control

## COc1cc(C(=O)O)c2c(c1C)OC(=O)c1c(C)cc(O)c(C=O)c1O2
dose: 1.39 mg/kg/injection, schedule: Q01DX009 (ip), vehicle: saline with Tween-80
  T/C: 97 % of control
dose: 2.78 mg/kg/injection, schedule: Q01DX009 (ip), vehicle: saline with Tween-80
  T/C: 99 % of control
dose: 5.56 mg/kg/injection, schedule: Q01DX009 (ip), vehicle: saline with Tween-80
  T/C: 110 % of control
dose: 6.25 mg/kg/injection, schedule: Q01DX009 (ip), vehicle: Klucel (hydroxypropylcellulose) (HPC)
  T/C: 111 % of control
dose: 11.0 mg/kg/injection, schedule: Q01DX009 (ip), vehicle: saline with Tween-80
  T/C: 158 % of control
dose: 12.5 mg/kg/injection, schedule: Q01DX009 (ip), vehicle: Klucel (hydroxypropylcellulose) (HPC)
  T/C: 117 % of control
[7]
  T/C: 150 % of control
[14]
  T/C: 122 % of control
[8]
  T/C: 160 % of control
[9]
  T/C: 113 % of control
[10]
  T/C: 105 % of control

## Nc1nc(=S)c2ncn(C3OC(COC(=O)c4ccc(Cl)cc4)C(OC(=O)c4ccc(Cl)cc4)C3OC(=O)c3ccc(Cl)cc3)c2[nH]1 (stereo not given)
dose: 18.75 mg/kg/injection, schedule: Q01DX009 (ip), vehicle: Klucel (hydroxypropylcellulose) (HPC)
  T/C: 116 % of control
dose: 37.5 mg/kg/injection, schedule: Q01DX009 (ip), vehicle: Klucel (hydroxypropylcellulose) (HPC)
  T/C: 120 % of control
dose: 75.0 mg/kg/injection, schedule: Q01DX009 (ip), vehicle: Klucel (hydroxypropylcellulose) (HPC)
  T/C: 116 % of control
dose: 150.0 mg/kg/injection, schedule: Q01DX009 (ip), vehicle: Klucel (hydroxypropylcellulose) (HPC)
  T/C: 109 % of control

## N=c1c2ncn(Cc3cccc(C(F)(F)F)c3)c2ncn1O
dose: 0.09 mg/kg/injection, schedule: Q01DX009 (ip), vehicle: Klucel (hydroxypropylcellulose) (HPC)
  T/C: 93 % of control
dose: 0.19 mg/kg/injection, schedule: Q01DX009 (ip), vehicle: Klucel (hydroxypropylcellulose) (HPC)
  T/C: 90 % of control
dose: 0.25 mg/kg/injection, schedule: Q04DX003 (ip), vehicle: Klucel (hydroxypropylcellulose) (HPC)
  T/C: 97 % of control
dose: 0.39 mg/kg/injection, schedule: Q01DX009 (ip), vehicle: Klucel (hydroxypropylcellulose) (HPC)
  T/C: 93 % of control
dose: 0.5 mg/kg/injection, schedule: Q04DX003 (ip), vehicle: Klucel (hydroxypropylcellulose) (HPC)
  T/C: 95 % of control
dose: 0.78 mg/kg/injection, schedule: Q01DX009 (ip), vehicle: Klucel (hydroxypropylcellulose) (HPC)
  T/C: 91 % of control
dose: 1.0 mg/kg/injection, schedule: Q04DX003 (ip), vehicle: Klucel (hydroxypropylcellulose) (HPC)
  T/C: 92 % of control
dose: 1.4 mg/kg/injection, schedule: Q04DX003 (ip), vehicle: Klucel (hydroxypropylcellulose) (HPC)
  T/C: 107 % of control
dose: 1.56 mg/kg/injection, schedule: Q01DX009 (ip), vehicle: Klucel (hydroxypropylcellulose) (HPC)
  T/C: 88 % of control
dose: 2.2 mg/kg/injection, schedule: Q04DX003 (ip), vehicle: Klucel (hydroxypropylcellulose) (HPC)
  T/C: 107 % of control
dose: 3.3 mg/kg/injection, schedule: Q04DX003 (ip), vehicle: Klucel (hydroxypropylcellulose) (HPC)
  T/C: 95 % of control

## CC1(C)N=C(N)N=C(N)N1c1cccc(CCCCc2cccc(S(=O)(=O)F)c2)c1
[6]
  T/C: 115 % of control
[7]
  T/C: 96 % of control
[8]
  T/C: 87 % of control

## CCc1cnccc1C
[14]
  T/C: 100 % of control
[11]
  T/C: 112 % of control

## N#Cc1ccc(/C=C/C(=O)c2ccccc2)cc1
[12]
  T/C: 101 % of control
[13]
  T/C: 101 % of control

Source: PubChem BioAssay AID192 (DTP/NCI, 2004)
